Source: patent US8722849B2, “Polypeptides” (Novo Nordisk A/S, priority 2011, dated 2014)
In brackets after ≈: the same amount, converted by molar mass. Read-outs that look alike come from different tables or passages of the source. Starred links: 1 amine or outer side, 2 acyl side, 3 side chain; linkers in the order of their positions; H or OH if unused. Positions of bridges follow the written chain, without caps; N, C: chain ends. Residues, ends and D or L forms follow the SMILES beside them. *: point of attachment. C20 diacid = O=C(O)CCCCCCCCCCCCCCCCCCC(=O)*; C18 diacid = O=C(O)CCCCCCCCCCCCCCCCC(=O)*; γGlu = O=C(O)[C@H](CCC(=O)[*:2])N[*:1]

Key:
[1] = molecular target: T1, human calcitonin receptor (Homo sapiens, UniProt P30988); experiment: Assay (II)a functional CRE-luciferase assay, human calcitonin receptor; type: cell-based; details: Table 7; human calcitonin (CTa) receptor
T1 construct: expressed in transfected cells; host or cells: BHK570
T1 sequence (P30988 25-474): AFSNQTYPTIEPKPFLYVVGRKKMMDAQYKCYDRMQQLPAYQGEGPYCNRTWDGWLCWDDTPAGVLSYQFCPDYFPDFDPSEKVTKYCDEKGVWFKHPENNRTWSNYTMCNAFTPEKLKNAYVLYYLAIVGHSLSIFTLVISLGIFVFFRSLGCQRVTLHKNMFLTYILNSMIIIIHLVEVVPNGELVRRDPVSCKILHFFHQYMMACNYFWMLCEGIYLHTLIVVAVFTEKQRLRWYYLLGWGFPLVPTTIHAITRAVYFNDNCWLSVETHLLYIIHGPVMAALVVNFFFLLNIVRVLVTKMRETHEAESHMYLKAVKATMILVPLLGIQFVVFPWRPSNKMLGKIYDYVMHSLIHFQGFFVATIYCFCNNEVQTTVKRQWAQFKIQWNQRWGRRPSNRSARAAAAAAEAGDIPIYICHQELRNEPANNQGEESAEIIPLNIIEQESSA

[2] = Assay (IV) determination of solubility; type: physicochemical
Method in brief: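 Eight 100 mM buffers (glycylglycine pH 3.0–5.0, bistrispropane pH 6.0–8.0) each received an equal volume of polypeptide dissolved in water at ~500 nmol/ml. Soluble polypeptide was measured by HPLC following 18 hours at room temperature and centrifugation.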

[3] = molecular target: T2, human amylin receptor (amylin 3(a) receptor: human calcitonin receptor + RAMP-3) (Homo sapiens, UniProt O60896+P30988); experiment: Assay (II)a functional CRE-luciferase assay, human amylin receptor; type: cell-based; details: Table 2; BHK amylin 3(a)-receptor/CRE-luc cells
T2 construct: expressed in transfected cells; host or cells: BHK570
T2 sequence (P30988 25-474): T1 sequence (P30988 25-474)
T2 sequence (O60896 24-148 partner): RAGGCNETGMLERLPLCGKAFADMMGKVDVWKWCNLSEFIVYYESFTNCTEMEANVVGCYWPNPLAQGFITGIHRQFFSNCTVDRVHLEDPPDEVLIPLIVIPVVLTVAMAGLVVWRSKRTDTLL

[4] = bistrispropane buffer, pH 6, pH 6.0, read-out: Solubility pH 6.0
[5] = bistrispropane buffer, pH 6.5, pH 6.5, read-out: Solubility pH 6.5
[6] = bistrispropane buffer, pH 7, pH 7.0, read-out: Solubility pH 7.0
[7] = bistrispropane buffer, pH 7.5, pH 7.5, read-out: Solubility pH 7.5
[8] = bistrispropane buffer, pH 8, pH 8.0, read-out: Solubility pH 8.0
[9] = glycylglycine buffer, pH 3, pH 3.0, read-out: Solubility pH 3.0
[10] = glycylglycine buffer, pH 4, pH 4.0, 18 hours at room temperature, Table 2, read-out: Solubility pH 4.0
[11] = glycylglycine buffer, pH 4, pH 4.0, read-out: Solubility pH 4.0
[12] = glycylglycine buffer, pH 5, pH 5.0, read-out: Solubility pH 5.0

Row | EC50 [1] [nM] | solubility at 18 h [2, 4] [µM] | solubility at 18 h [2, 5] [µM] | solubility at 18 h [2, 6] [µM] | solubility at 18 h [2, 7] [µM] | solubility at 18 h [2, 8] [µM] | solubility at 18 h [2, 9] [µM] | solubility at 18 h [2, 10] [µM] | solubility at 18 h [2, 11] [µM] | solubility at 18 h [2, 12] [µM] | EC50 [3] [nM] | solubility at 18 h ([2]; bistrispropane buffer, pH 7, pH 7.0, 18 hours at room temperature, Table 3, read-out: Solubility pH 7.0) [µM] | solubility at 18 h ([2]; bistrispropane buffer, pH 7, pH 7.0, Table 8, read-out: Solubility pH 7.0) [µM] | solubility at 18 h ([2]; bistrispropane buffer, pH 7, pH 7.0, Table 9, read-out: Solubility pH 7.0) [µM] | solubility at 18 h ([2]; bistrispropane buffer, pH 7.5, pH 7.5, Table 9, read-out: Solubility pH 7.5) [µM] | SMILES
1 | 0.947 | > 200 | 156 (≈ 719 µg/mL) | 37 (≈ 170 µg/mL) | 27 (≈ 124 µg/mL) | 26 (≈ 120 µg/mL) | > 200 | > 200 | > 200 | > 200 | 0.0795 | – | – | – | – | CC[C@H](C)[C@H](NC(=O)[C@@H]1CCCN1C(=O)CNC(=O)[C@H](Cc1ccccc1)NC(=O)[C@H](CC(N)=O)NC(=O)[C@H](CC(N)=O)NC(=O)[C@H](CO)NC(=O)[C@H](CO)NC(=O)[C@H](Cc1c[nH]cn1)NC(=O)[C@H](CCCNC(=N)N)NC(=O)[C@H](CC(C)C)NC(=O)[C@H](Cc1ccccc1)NC(=O)[C@H](CCC(=O)O)NC(=O)[C@H](C)NC(=O)[C@H](CC(C)C)NC(=O)[C@H](CCCNC(=N)N)NC(=O)[C@H](CCC(N)=O)NC(=O)[C@@H](NC(=O)[C@H](C)NC(=O)[C@@H]1CSSC[C@H](NC(=O)[C@H](CCCCN)NC(=O)[C@H](Cc2c[nH]cn2)NC(=O)CC[C@H](NC(=O)CCCCCCCCCCCCCCCCC(=O)O)C(=O)O)C(=O)N[C@@H](CC(N)=O)C(=O)N[C@@H]([C@@H](C)O)C(=O)N[C@@H](C)C(=O)N[C@@H]([C@@H](C)O)C(=O)N1)[C@@H](C)O)C(=O)N[C@@H](CC(C)C)C(=O)N1CCC[C@H]1C(=O)N1CCC[C@H]1C(=O)N[C@H](C(=O)N[C@@H](CC(N)=O)C(=O)N[C@H](C(=O)NCC(=O)N[C@@H](CO)C(=O)N[C@@H](Cc1c[nH]cn1)C(=O)N[C@H](C(=O)N[C@@H](Cc1ccc(O)cc1)C(N)=O)[C@@H](C)O)C(C)C)[C@@H](C)O [Example 71, N-alpha-[(S)-4-Carboxy-4-(17-carboxyheptadecanoylamino)butyryl]-His-[Glu14,Arg17,His35]-pramlintide] ({C18 diacid-γGlu}-HKCNTATCATQRLAEFLRHSSNNFGPILPPTNVGSHTY-NH2; disulfide 3-8 (inferred); C-terminus assumed)
2 | 0.459 | 161 (≈ 720 µg/mL) | 132 (≈ 591 µg/mL) | 73 (≈ 327 µg/mL) | 62 (≈ 277 µg/mL) | 21 (≈ 94 µg/mL) | > 200 | > 200 | > 200 | 183 (≈ 819 µg/mL) | 0.101 | – | – | – | – | CC[C@H](C)[C@H](NC(=O)[C@@H]1CCCN1C(=O)CNC(=O)[C@H](Cc1ccccc1)NC(=O)[C@H](CC(N)=O)NC(=O)[C@H](CC(N)=O)NC(=O)[C@H](CO)NC(=O)[C@H](CO)NC(=O)[C@H](Cc1c[nH]cn1)NC(=O)[C@H](CCCNC(=N)N)NC(=O)[C@H](CC(C)C)NC(=O)[C@H](Cc1ccccc1)NC(=O)[C@H](CCC(=O)O)NC(=O)[C@H](C)NC(=O)[C@H](CC(C)C)NC(=O)[C@H](CCCNC(=N)N)NC(=O)[C@H](CCC(N)=O)NC(=O)[C@@H](NC(=O)[C@H](C)NC(=O)[C@@H]1CSSC[C@H](NC(=O)[C@H](CCCCN)NC(=O)CC[C@H](NC(=O)CCCCCCCCCCCCCCCCCCC(=O)O)C(=O)O)C(=O)N[C@@H](CC(N)=O)C(=O)N[C@@H]([C@@H](C)O)C(=O)N[C@@H](C)C(=O)N[C@@H]([C@@H](C)O)C(=O)N1)[C@@H](C)O)C(=O)N[C@@H](CC(C)C)C(=O)N1CCC[C@H]1C(=O)N1CCC[C@H]1C(=O)N[C@H](C(=O)N[C@@H](CC(N)=O)C(=O)N[C@H](C(=O)NCC(=O)N[C@@H](CO)C(=O)N[C@@H](CC(N)=O)C(=O)N[C@H](C(=O)N[C@@H](Cc1ccc(O)cc1)C(N)=O)[C@@H](C)O)C(C)C)[C@@H](C)O [Example 50, N-alpha-[(S)-4-Carboxy-4-(19-carboxynonadecanoylamino)butyryl]-[Glu14,Arg17]-pramlintide] ({C20 diacid-γGlu}-KCNTATCATQRLAEFLRHSSNNFGPILPPTNVGSNTY-NH2; disulfide 2-7 (inferred))
3 | 0.131 | 69 (≈ 315 µg/mL) | 32 (≈ 146 µg/mL) | 42 (≈ 192 µg/mL) | 89 (≈ 406 µg/mL) | 155 (≈ 708 µg/mL) | > 200 | > 200 | > 200 | 13 (≈ 59.3 µg/mL) | 0.0779 | – | – | – | – | CC[C@H](C)[C@H](NC(=O)[C@H](CCC(=O)O)NC(=O)CNC(=O)[C@H](Cc1ccccc1)NC(=O)[C@H](CC(N)=O)NC(=O)[C@H](CC(N)=O)NC(=O)[C@H](CO)NC(=O)[C@H](CO)NC(=O)[C@H](CCCNC(=N)N)NC(=O)[C@H](Cc1c[nH]cn1)NC(=O)[C@H](CC(C)C)NC(=O)[C@H](Cc1ccccc1)NC(=O)[C@H](CCC(=O)O)NC(=O)[C@H](C)NC(=O)[C@H](CC(C)C)NC(=O)[C@H](CCCNC(=N)N)NC(=O)[C@H](CCC(N)=O)NC(=O)[C@@H](NC(=O)[C@H](C)NC(=O)[C@@H]1CSSC[C@H](NC(=O)[C@H](Cc2c[nH]cn2)NC(=O)CC[C@H](NC(=O)CCCCCCCCCCCCCCCCCCC(=O)O)C(=O)O)C(=O)N[C@@H](CC(N)=O)C(=O)N[C@@H]([C@@H](C)O)C(=O)N[C@@H](C)C(=O)N[C@@H]([C@@H](C)O)C(=O)N1)[C@@H](C)O)C(=O)N[C@@H](CC(C)C)C(=O)N[C@@H](CO)C(=O)N[C@@H](CCCNC(=N)N)C(=O)N[C@H](C(=O)N[C@@H](CC(N)=O)C(=O)N[C@H](C(=O)NCC(=O)N[C@@H](CO)C(=O)N[C@@H](CC(N)=O)C(=O)N[C@H](C(=O)N[C@@H](Cc1ccc(O)cc1)C(N)=O)[C@@H](C)O)C(C)C)[C@@H](C)O [Example 7, N-alpha-[(S)-4-Carboxy-4-(19-carboxynonadecanoylamino)butyryl]-[His1,Glu14,His17,Arg18,Glu25,Ser28,Arg29]-pramlintide] ({C20 diacid-γGlu}-HCNTATCATQRLAEFLHRSSNNFGEILSRTNVGSNTY-NH2; disulfide 2-7 (inferred); C-terminus assumed)
4 | 0.169 | > 200 | > 200 | > 200 | > 200 | > 200 | > 200 | > 200 | > 200 | > 200 | 0.156 | > 200 | > 200 | > 200 | > 200 | CC[C@H](C)[C@H](NC(=O)[C@@H]1CCCN1C(=O)CNC(=O)[C@H](Cc1ccccc1)NC(=O)[C@H](CC(N)=O)NC(=O)[C@H](CCC(N)=O)NC(=O)[C@H](CO)NC(=O)[C@H](CO)NC(=O)[C@H](Cc1c[nH]cn1)NC(=O)[C@H](Cc1c[nH]cn1)NC(=O)[C@H](CC(C)C)NC(=O)[C@H](Cc1ccccc1)NC(=O)[C@H](CCC(=O)O)NC(=O)[C@H](C)NC(=O)[C@H](CC(C)C)NC(=O)[C@H](CCCNC(=N)N)NC(=O)[C@H](CCC(N)=O)NC(=O)[C@@H](NC(=O)[C@H](C)NC(=O)[C@@H]1CSSC[C@H](NC(=O)[C@H](CCCCN)NC(=O)CC[C@H](NC(=O)CCCCCCCCCCCCCCCCCCC(=O)O)C(=O)O)C(=O)N[C@@H](CC(N)=O)C(=O)N[C@@H]([C@@H](C)O)C(=O)N[C@@H](C)C(=O)N[C@@H]([C@@H](C)O)C(=O)N1)[C@@H](C)O)C(=O)N[C@@H](CC(C)C)C(=O)N1CCC[C@H]1C(=O)N1CCC[C@H]1C(=O)N[C@H](C(=O)N[C@@H](CC(N)=O)C(=O)N[C@H](C(=O)NCC(=O)N[C@@H](CO)C(=O)N[C@@H](Cc1c[nH]cn1)C(=O)N[C@H](C(=O)N[C@@H](Cc1ccc(O)cc1)C(N)=O)[C@@H](C)O)C(C)C)[C@@H](C)O [Example 117, N-alpha-[(S)-4-Carboxy-4-(19-carboxynonadecanoylamino)butyryl]-[Glu14,His17,Gln21,His35)-pramlintide] ({C20 diacid-γGlu}-KCNTATCATQRLAEFLHHSSQNFGPILPPTNVGSHTY-NH2; disulfide 2-7 (inferred); C-terminus assumed)
